In patent EP0557936A1, “Amidic derivatives of (R)-glycerophosphoryl-(S)-serine or of its diacyl derivative, process for their preparation and relative pharmaceutical compositions for the improvement of the learning processes” (MAGIS FARMACEUTICI S.p.A., priority 1992, dated 1993):

What was measured:
[1] = system: scopolamine induced amnesy; assay: passive avoidance test, scopolamine induced amnesia (intraperitoneal administration); format: in vivo, rat; conditions: scopolamine 1 mg/kg; for Avoid. time (sec.) After 24 h: re-test after 24 h, end-point 300 second
Protocol: (§1) The antiamnesic activity was tested by means of the classical passive avoidance test, with respect to the amnesy induced in the rat, by administration of scopolamine, or by means of electroconvulsive shock (ECS).For both the tests a shuttle-box was used of the Ugo Basile Company (Comerio, Varese), consisting of two compartments, one of which compartments was clear and the other one dark and fitted with an electrifiable floor.
(§2) In order to induce a passive avoidance response, the animal was placed onto a runner of the clear compartment, enlightened by a 60 watt lamp, for a 1 minute acclimatisation, whereafter a bulkhead was opened putting the runner in communication with the dark compartment, which the animal istinctively entered after a latency of a few seconds. The bulkhead was immediately shut and the animal got a 0.21 mA current for 2 second through the electrifiable floor. The animal was then removed and newly subjected to the test 24 h later, in order to verify the retention level of the acquired response of passive avoidance, measuring the latency required by the entry into the electrifiable compartment, with an end-point of 300 second.
(§3) All the tests were carried out under conditions of stratified randomization, using in each test session the same number of animals for the different experimental groups tested in parallel, and comprising, besides the groups treated with the product under test (test substances and reference substances having known activity), two separate groups of controls and precisely: blank controls (animals treated with placebo) and deconditioned controls (animals treated with placebo and subjected to amnesic treatment by means of scopolamine or of ECS).
(§4) The results obtained with the different dosages of the products subjected to screening and with the corresponding reference standards having a known activity, namely N(S)-3-(formyl-amino)-epsilon-caprolactam, N(4-phenylbutanoyl-hydroxy)prolyl-pyrrolidine and glycerophosphoryl-serine, were expressed as a percentage of antagonism of the amnesy (AA), defined according to the following formula: [formula] wherein the index of comparison IC, concerning treated animals (t) and blank controls (b), is defined by the formula: [formula] wherein: Nm = number of animals belonging to group m (blanks or treated animals); Nn = number of animals belonging to group n (deconditioned animals); Amn = binary function which can assume only the values +1, zero or - 1, depending on the fact that the latency time (seconds) of an animal of the m group (xm) be respectively higher than, equal to or lower than the latency time (seconds) of an animal of the n group (xn).
(§5) The summation Σ Amn i extended to all the pairs obtained combining each xm term with each xn term.
(§6) Normally the comparison index (IC) between blank controls and deconditioned controls is between 60% and 80% and the test was discarded when such index resulted to be lower than 40%.
The utilized rats were male C.r.l.: CD (50) BR (Charles River Italia), showing a weight of 150-170 g, after an acclimatisation time of a week, under standard conditions.
The animals got the products to be tested by intraperitoneal way and scopolamine bromhydrate (1 mg/kg) by subcutaneous way, respectively 45 and 30 minutes before being subjected to the previously described avoidance test.
As to the standard substances [GFS, N(S)-3-(formylamino)-epsilon-caprolactam and N(4-phenylbutanoylhydroxy)prolyl-pyrrolidine], the used dosage was 4x10⁻² mmol/kg, whereas for the products to be tested the used dosage was between 1x10⁻² and 12x10⁻² mmol/kg, with an intermediate dosage equimolar with respect to the one of the standards.

ECS engendered amnesy = assay: passive avoidance test, electroconvulsive shock (ECS) induced amnesia; format: in vivo, rat; conditions: groups of 10
Protocol: as §1, §2, §3, §4, §5, §6
The animals got the products to be tested 30 minute before undergoing the previously described avoidance test.
In this series of experimental works the deconditioning treatment consists of an electroshock (square wave of 45 m, amplitude 0.6 ms, time 2 s and frequency 40 Hz), delivered by means of auricular electrodes, connected to an electrostimulator ECT/UNIT of the Ugo Basile Company (Comerio, Varese).
The used dosages were 8x10⁻² mmol/kg for the standard substances, therefore higher than the ones used in the preceeding test and this depends on a lower activity of the standard substances, previously ascertained in this test, in our experimental conditions.
The dosages of the products to be tested were correlatively comprised between 2x10⁻² and 24x10⁻² mmol/kg, with an intermediate dosage equimolar (8x10⁻² mmol/kg) with respect to the ones of the standard substances.

[2] = dose 4 x 10^-2 mmoli/kg i.p. 30' before the acquisition trial
[3] = dose 8 x 10^-2 mmoli/kg i.p. 30' before the acquisition trial
[4] = dose 12 x 10^-2 mmoli/kg i.p. 30' before the acquisition trial
[5] = dose 16 x 10^-2 mmoli/kg i.p. 30' before the acquisition trial

Row | Compound | No.of amnesic rats/No. of rats tested ([1]; dose 4.10^-2 mmoli/kg i.p.) | Percent amnesia ([1]; dose 4.10^-2 mmoli/kg i.p.) [%] | Avoid. time (sec.) After 24 h ([1]; dose 4.10^-2 mmoli/kg i.p.) | No.of amnesic rats/No. of rats tested ([1]; dose 8.10^-2 mmoli/kg i.p.) | Percent amnesia ([1]; dose 8.10^-2 mmoli/kg i.p.) [%] | Avoid. time (sec.) After 24 h ([1]; dose 8.10^-2 mmoli/kg i.p.) | No.of amnesic rats/No. of rats tested ([1]; dose 12.10^-2 mmoli/kg i.p.) | Percent amnesia ([1]; dose 12.10^-2 mmoli/kg i.p.) [%] | Avoid. time (sec.) After 24 h ([1]; dose 12.10^-2 mmoli/kg i.p.) [s] | Time taken to enter chamber (min) (ECS engendered amnesy; [2]) | Time taken to enter chamber (min) (ECS engendered amnesy; [3]) | Time taken to enter chamber (min) (ECS engendered amnesy; [4]) | Time taken to enter chamber (min) (ECS engendered amnesy; [5]) | Time taken to enter chamber (min) (ECS engendered amnesy; dose 24 x 10^-2 mmoli/kg i.p. 30' before the acquisition trial)
1 | COC(=O)CN1CCCC[C@H](NC(=O)[C@@H](N)COP(=O)(O)OC[C@@H](COC(C)=O)OC(C)=O)C1=O [MGS 1] | 2/10 | 20 | 243,5 sec. | 1/10 | 10 | 266,6 sec. | 0/10 | 0 | 300 | 0,664 min | 1,378 min | 1,916 min | 1,615 min | –
2 | O=CN[C@H]1CCCCNC1=O [N-Formylamino ε -caprolactame, N(S)-3-(formyl-amino)-epsilon-caprolactam, reference compound] | 4/10 | 40 | 72,5 sec. | – | – | – | – | – | – | – | 0,131 min | – | – | –
3 | N[C@@H](COP(=O)(O)OC[C@H](O)CO)C(=O)O [GFS, glycerophosphoryl-serine, reference compound] | 4/10 | 40 | 126,5 sec. | – | – | – | – | – | – | – | 0,236 min | – | – | –
4 | COC(=O)CN1CCCC[C@H](NC(=O)[C@@H](N)COP(=O)(O)OC[C@H](O)CO)C1=O [MGS 2] | 2/10 | 20 | 270 s | 0/10 | 0 | 300 s | 0/10 | 0 | 300 | 0,557 min | 1,418 min | 2,072 min | 1,777 min | –
5 | N(4-phenylbutanoyl-hydroxy)prolyl-pyrrolidine [Phenyl-butirryl prolyl-pirrolidine, reference compound] | 4/10 | 40 | 101,7 sec. | – | – | – | – | – | – | – | 0,213 min | – | – | –
6 | N[C@@H](COP(=O)(O)OC[C@H](O)CO)C(=O)N[C@H]1CCCCNC1=O [MGS 4] | – | – | – | – | – | – | – | – | – | – | 0,466 min | 1,316 min | – | 1,883 min
